Data: the supplement of paper PMC10307832

Key:
Test in all cases: relative viability (nuclei count vs DMSO), 5 days (fraction); higher = more cells survive
PC-14 = tested on: PC-14
In short: (§1)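 Relative viability equals treated-well nuclei counts divided by vehicle-well nuclei counts. Counts came from 4× images of lung cancer cell lines grown in 1536-well plates for 5 days after pin-tool dosing on the day after seeding. Dosing used one drug alone or a fixed anchor-drug dose plus five library-drug doses (not always all listed) in √10 steps, and values are medians of duplicate plates.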

SK-LU-1 = tested on: SK-LU-1
In short: as §1

EKVX = tested on: EKVX
In short: as §1

NCI-H1792 = tested on: NCI-H1792
In short: as §1

NCI-H520 = tested on: NCI-H520
In short: as §1

A-427 = tested on: A-427
In short: as §1

HCC-827 = tested on: HCC-827
In short: as §1

NCI-H2087 = tested on: NCI-H2087
In short: as §1

NCI-H3122 = tested on: NCI-H3122
In short: as §1

NCI-H1437 = tested on: NCI-H1437
In short: as §1

ABC-1 = tested on: ABC-1
In short: as §1

LCLC-103H = tested on: LCLC-103H
In short: as §1

COR-L23 = tested on: COR-L23
In short: as §1

201T = tested on: 201T
In short: as §1

SW 1573 = tested on: SW 1573
In short: as §1

NCI-H1666 = tested on: NCI-H1666
In short: as §1

EPLC-272H = tested on: EPLC-272H
In short: as §1

HCC-44 = tested on: HCC-44
In short: as §1

NCI-H2023 = tested on: NCI-H2023
In short: as §1

RERF-LC-KJ = tested on: RERF-LC-KJ
In short: as §1

SW 900 = tested on: SW 900
In short: as §1

NCI-H2009 = tested on: NCI-H2009
In short: as §1

COR-L 105 = tested on: COR-L 105
In short: as §1

EMC-BAC-2 = tested on: EMC-BAC-2
In short: as §1

LU99A = tested on: LU99A
In short: as §1

Nc1cccc2c1CN(C1CCC(=O)NC1=O)C2=O (centres undefined) [Lenalidomide] + CCNC(=O)c1noc(-c2cc(C(C)C)c(O)cc2O)c1-c1ccc(CN2CCOCC2)cc1 [Luminespib] (partner 0.01 µM)
relative viability (PC-14; first compound 0.253 µM): 0.152
relative viability (PC-14; first compound 0.8 µM): 0.191
relative viability (PC-14; first compound 2.53 µM): 0.151
relative viability (PC-14; first compound 8 µM): 0.133
relative viability (SK-LU-1; first compound 0.253 µM): 0.177
relative viability (SK-LU-1; first compound 0.8 µM): 0.218
relative viability (SK-LU-1; first compound 2.53 µM): 0.198
relative viability (SK-LU-1; first compound 8 µM): 0.226
relative viability (EKVX; first compound 0.253 µM): 0.807
relative viability (EKVX; first compound 0.8 µM): 0.84
relative viability (EKVX; first compound 2.53 µM): 0.955
relative viability (EKVX; first compound 8 µM): 0.801
relative viability (NCI-H1792; first compound 0.253 µM): 0.357
relative viability (NCI-H1792; first compound 2.53 µM): 0.449
relative viability (NCI-H1792; first compound 8 µM): 0.495
relative viability (NCI-H520; first compound 0.253 µM): 0.214
relative viability (NCI-H520; first compound 0.8 µM): 0.222
relative viability (NCI-H520; first compound 2.53 µM): 0.218
relative viability (NCI-H520; first compound 8 µM): 0.267
relative viability (A-427; first compound 0.253 µM): 0.807
relative viability (A-427; first compound 0.8 µM): 1
relative viability (A-427; first compound 2.53 µM): 0.914
relative viability (A-427; first compound 8 µM): 1.01
relative viability (HCC-827; first compound 0.253 µM): 0.661
relative viability (HCC-827; first compound 0.8 µM): 0.803
relative viability (HCC-827; first compound 2.53 µM): 0.838
relative viability (HCC-827; first compound 8 µM): 0.59
relative viability (NCI-H2087; first compound 0.253 µM): 0.233
relative viability (NCI-H2087; first compound 0.8 µM): 0.156
relative viability (NCI-H2087; first compound 2.53 µM): 0.14
relative viability (NCI-H2087; first compound 8 µM): 0.169
relative viability (NCI-H3122; first compound 0.253 µM): 0.0887
relative viability (NCI-H3122; first compound 0.8 µM): 0.0863
relative viability (NCI-H3122; first compound 2.53 µM): 0.0693
relative viability (NCI-H3122; first compound 8 µM): 0.102
relative viability (NCI-H1437; first compound 0.253 µM): 1.19
relative viability (NCI-H1437; first compound 0.8 µM): 1.08
relative viability (NCI-H1437; first compound 2.53 µM): 1.11
relative viability (NCI-H1437; first compound 8 µM): 1.23
relative viability (ABC-1; first compound 0.253 µM): 0.908
relative viability (ABC-1; first compound 2.53 µM): 0.684
relative viability (ABC-1; first compound 8 µM): 0.517
relative viability (LCLC-103H; first compound 0.253 µM): 1.02
relative viability (LCLC-103H; first compound 0.8 µM): 0.958
relative viability (LCLC-103H; first compound 2.53 µM): 1.17
relative viability (LCLC-103H; first compound 8 µM): 0.922
relative viability (COR-L23; first compound 0.253 µM): 0.683
relative viability (COR-L23; first compound 0.8 µM): 0.766
relative viability (COR-L23; first compound 2.53 µM): 0.735
relative viability (COR-L23; first compound 8 µM): 0.758
relative viability (201T; first compound 0.253 µM): 1.05
relative viability (201T; first compound 2.53 µM): 1.03
relative viability (201T; first compound 8 µM): 1.09
relative viability (SW 1573; first compound 0.253 µM): 0.538
relative viability (SW 1573; first compound 0.8 µM): 0.198
relative viability (SW 1573; first compound 2.53 µM): 0.162
relative viability (SW 1573; first compound 8 µM): 0.366
relative viability (NCI-H1666; first compound 0.253 µM): 0.977
relative viability (NCI-H1666; first compound 2.53 µM): 1.02
relative viability (NCI-H1666; first compound 8 µM): 1.04
relative viability (EPLC-272H; first compound 0.253 µM): 0.341
relative viability (EPLC-272H; first compound 0.8 µM): 0.259
relative viability (EPLC-272H; first compound 2.53 µM): 0.276
relative viability (EPLC-272H; first compound 8 µM): 0.204
relative viability (HCC-44; first compound 0.253 µM): 0.988
relative viability (HCC-44; first compound 2.53 µM): 1.4
relative viability (HCC-44; first compound 8 µM): 1.23
relative viability (NCI-H2023; first compound 0.253 µM): 0.869
relative viability (NCI-H2023; first compound 0.8 µM): 0.915
relative viability (NCI-H2023; first compound 2.53 µM): 0.685
relative viability (NCI-H2023; first compound 8 µM): 0.824
relative viability (RERF-LC-KJ; first compound 0.253 µM): 1.28
relative viability (RERF-LC-KJ; first compound 0.8 µM): 1.29
relative viability (RERF-LC-KJ; first compound 2.53 µM): 1.12
relative viability (RERF-LC-KJ; first compound 8 µM): 1.32
relative viability (SW 900; first compound 0.253 µM): 0.195
relative viability (SW 900; first compound 2.53 µM): 0.189
relative viability (SW 900; first compound 8 µM): 0.183
relative viability (NCI-H2009; first compound 0.253 µM): 1.04
relative viability (NCI-H2009; first compound 0.8 µM): 0.99
relative viability (NCI-H2009; first compound 2.53 µM): 1.09
relative viability (NCI-H2009; first compound 8 µM): 1.11
relative viability (COR-L 105; first compound 0.253 µM): 0.891
relative viability (COR-L 105; first compound 0.8 µM): 0.574
relative viability (COR-L 105; first compound 2.53 µM): 0.836
relative viability (COR-L 105; first compound 8 µM): 0.994
relative viability (EMC-BAC-2; first compound 0.253 µM): 1.22
relative viability (EMC-BAC-2; first compound 0.8 µM): 1.1
relative viability (EMC-BAC-2; first compound 2.53 µM): 1.23
relative viability (EMC-BAC-2; first compound 8 µM): 1.11
relative viability (LU99A; first compound 0.253 µM): 0.236
relative viability (LU99A; first compound 0.8 µM): 0.249
relative viability (LU99A; first compound 2.53 µM): 0.258
relative viability (LU99A; first compound 8 µM): 0.258
